Results: ChEMBL document CHEMBL2157990 (ACS Med Chem Lett, 2012)
One block for each molecule: values may come before it. The source made the active and inactive calls. The calls are words filed in the database; no cut-off is given here.

Experiments:
[1] = Activation of chymotrypsin-like activity of human 20S proteasome using suc-LLVY-AMC as substrate by fluorescence assay
[2] = Inhibition of PA28 activated chymotrypsin-like activity of human 20S proteasome using suc-LLVY-AMC as substrate by fluorescence assay
Homo sapiens [3] = species: Homo sapiens; assay: Activation of chymotrypsin-like activity of human 20S proteasome using suc-LLVY-AMC as substrate by fluorescence assay relative to control
Homo sapiens [4] = species: Homo sapiens; assay: Reversal of amyloid beta-induced inhibition of chymotrypsin-like activity of PA28-activated human 20S proteasome using suc-LLVY-AMC as substrate at 14 uM by fluorescence assay; set-up: scale not given: the % may be the effect or the level left
[5] = Activation of trypsin-like activity of human 20S proteasome using Bz-VGR-AMC as substrate by fluorescence assay
Homo sapiens [6] = species: Homo sapiens; assay: Activation of chymotrypsin-like activity of human 20S proteasome using suc-LLVY-AMC as substrate at 18 uM by fluorescence assay
Homo sapiens [7] = species: Homo sapiens; assay: Activation of chymotrypsin-like activity of human 20S proteasome using suc-LLVY-AMC as substrate at 18 uM by fluorescence assay in presence of 1.1 to 30 ug/mL
[8] = Activation of caspase-like activity of human 20S proteasome using (Z)-LLE-bNA as substrate by fluorescence assay
Homo sapiens [9] = species: Homo sapiens; assay: Reversal of amyloid beta-induced inhibition of chymotrypsin-like activity of PA28-activated human 20S proteasome using suc-LLVY-AMC as substrate by fluorescence assay

EC50 [1]: Not Active
IC50 [2]: Not Active
SMILES: C/C=C1/[C@H](O[C@@H]2O[C@H](CO)[C@@H](O)[C@H](O)[C@H]2O)OC=C(C(=O)OC)[C@H]1CC(=O)OCCc1ccc(O)c(O)c1 [OLEUROPEIN]

SMILES: CCOC(=O)CC[C@@H](C)[C@H]1CC[C@H]2[C@@H]3CC[C@@H]4C[C@H](OC(=O)CCCCCC(=O)O)CC[C@]4(C)[C@H]3CC[C@]12C
EC50 ([1]; read-out: EC50): > 15 µM
IC50 [2]: Not Active

SMILES: COC(=O)CC[C@@H](C)[C@H]1CC[C@H]2[C@@H]3CC[C@@H]4C[C@@H](N)CC[C@]4(C)[C@H]3CC[C@]12C
EC50 [1]: Not Active
IC50 ([2]; read-out: IC50): 5.7 µM

SMILES: COC(=O)CC[C@@H](C)[C@H]1CC[C@H]2[C@@H]3CC[C@@H]4C[C@H](N)CC[C@]4(C)[C@H]3CC[C@]12C
EC50 ([1]; read-out: EC50): 6.7 µM
IC50 [2]: Not Active

SMILES: C[C@H](CCC(=O)O)[C@H]1CC[C@H]2[C@@H]3CC[C@@H]4C[C@H](OC(=O)CCCCCC(=O)O)CC[C@]4(C)[C@H]3CC[C@]12C
EC50 ([1]; read-out: EC50): > 15 µM
IC50 [2]: Not Active

SMILES: COC(=O)CC[C@@H](C)[C@H]1CC[C@H]2[C@@H]3CC[C@@H]4C[C@@H](OC(=O)CCCCCC(=O)O)CC[C@]4(C)[C@H]3CC[C@]12C
EC50 [1]: Not Active
IC50 ([2]; read-out: IC50): 3.1 µM

SMILES: CNC(=O)CC[C@@H](C)[C@H]1CC[C@H]2[C@@H]3CC[C@@H]4C[C@H](OC(=O)CCCCCC(=O)O)CC[C@]4(C)[C@H]3CC[C@]12C
EC50 [1]: Not Active
IC50 [2]: Not Active

SMILES: COC(=O)CC[C@@H](C)[C@H]1CC[C@H]2[C@@H]3CC[C@@H]4C[C@@H](NC(=O)CCCCCC(=O)O)CC[C@]4(C)[C@H]3CC[C@]12C
EC50 [1]: Not Active
IC50 ([2]; read-out: IC50): 2.6 µM

SMILES: COC(=O)CC[C@@H](C)[C@H]1CC[C@H]2[C@@H]3CC[C@@H]4C[C@H](NC(=O)CCCCCC(=O)O)CC[C@]4(C)[C@H]3CC[C@]12C
EC50 ([1]; read-out: EC50): 4.3 µM
fold change (FC) (Homo sapiens [3]): 2
IC50 [2]: Not Active

EC50 [1]: Not Active
IC50 ([2]; read-out: IC50): > 10 µM
SMILES: C[C@H](CCC(=O)O)[C@H]1CC[C@H]2[C@@H]3CC[C@@H]4C[C@H](O)CC[C@]4(C)[C@H]3CC[C@]12C [LITHOCHOLIC ACID]

SMILES: COC(=O)CC[C@@H](C)[C@H]1CC[C@H]2[C@@H]3CC[C@@H]4C[C@H](OC(=O)CCCCCC(=O)O)CC[C@]4(C)[C@H]3CC[C@]12C
EC50 ([1]; read-out: EC50): 7.8 µM
Activity (Homo sapiens [4]): 50%
EC50 [5]: 8.6 µM
Activity (Homo sapiens [6]): Active
Activity (Homo sapiens [7]): Active
EC50 [8]: 11 µM
Activity (Homo sapiens [9]): Dose-dependent effect
IC50 [2]: Not Active
